Test results reported in publication PMC3681751, “Identification of a Novel Antimicrobial Peptide from Human Hepatitis B Virus Core Protein Arginine-Rich Domain (ARD)” (PLoS Pathogens, 2013).
Residues, ends and D or L forms follow the SMILES beside them.

What was measured:
[1] = test system: HEK293 cells; assay: CFSE cell proliferation assay; type: cell-based, human; conditions: 5, 25 and 100 µM for 1 hour; flow cytometry
Protocol: To set up CFSE cell proliferation assay, 293 cells (human kidney origin) and Vero cells (monkey kidney origin) were resuspended in PBS to a final concentration of 10^6 cells/ml, before incubation with 10 µM CFSE dye (CellTrace CFSE cell proliferation kit, Invitrogen) at 37°C for 10 min. To quench the staining, ice-old culture media were then added and incubated on ice for 5 min. Labeled cells were then pelleted and washed three times by fresh medium containing 10% FBS before seeding into six well plates at a density of 3.3×10^5cells/well. After 20 h, the medium was removed and incubated with fresh medium containing 5, 25 and 100 µM HBc 147-183 for one hour (FITC-labeled ARD peptide had been largely internalized in 10 minutes after the addition of ARD peptides to the medium of HepG2 cells). Forty-eight hours later, cells were harvested and analyzed by flow cytometry (FACSCanto, BD Bioscience).

[2] = test system: P. aeruginosa; assay: SYTOX Green uptake (membrane permeabilization); type: cell-based, Pseudomonas aeruginosa; conditions: 2 µM peptide; 10^7 CFU, 1 µM SYTOX Green, 37°C, ex 485 nm/em 520 nm
Protocol: (§1) Briefly, bacteria (10^7 CFU) were prepared and mixed with 1 µM SYTOX Green (Invitrogen) for 15 minutes in the dark. […] Melittin (Sigma), the major toxin of bee venom, was used as a positive control to provide maximal permeabilization.

[3] = test system: human red blood cells (hRBCs); assay: Hemolytic activity; type: cell-based; conditions: 10% hRBCs in PBS, 1 h at 37°C, absorbance 405 nm; 100% = 1% Triton X-100; triplicates
Protocol: The hemolytic activities of peptides were determined by hemolysis against human red blood cells (hRBCs). Human blood was obtained in EDTA-containing tube and was centrifuged at 450 g for 10 min. The pellet was washed three times with PBS buffer, and a solution of 10% hRBCs was prepared. hRBCs solution was mixed with serial dilutions of peptides in PBS buffer, and the reaction mixtures were incubated for 1 h at 37°C. After centrifugation at 450 g for 10 min, the percentage of hemolysis was determined by measuring the absorbance at the wavelength of 405 nm of the supernatant. Blank and 100% hemolysis were determined in PBS buffer and in the presence of 1% Triton X-100, respectively.

[4] = test system: E. coli (ATCC 25922); type: cell-based, Escherichia coli; conditions: 3 h at 37°C in phosphate buffer pH 7.2; triplicate
In short: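 Bacteria were grown overnight at 37°C in Mueller–Hinton broth and diluted at mid-log phase to 10^6 CFU/ml in pH 7.2 sodium phosphate/NaCl buffer. Peptide dilutions in that buffer were added, then 3 h static incubation at 37°C. Plating on agar overnight gave the minimal bactericidal concentration.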

[5] = LPS/Lipid A competition ELISA; type: binding; conditions: 10 nM peptide, 1 µg LPS per well, E. coli Lipid A 0 to 10 µg/ml, 1 hour 37°C
Protocol: Several kinds of peptide-LPS or peptide-Lipid A binding assays were performed in this study: 1) Streptavidine-conjugated beads (Dynabeads MyOne Streptavidin T1, Invitrogen) were blocked by P. aeruginosa LPS (Sigma) at 37°C for 1.5 hour. After washing with PBST (PBS, pH 7.4 containing 0.1% (w/v) Tween-20), aliquots containing 250 pmol streptavidine-conjugated beads were incubated with a reaction mixture overnight at 4°C. The reaction mixture was prepared by mixing increasing amounts of biotinylated peptide HBc147-183 (0, 0.004, 0.02, 0.1, 0.5 and 2.5 µM) and 5 µg/ml P. aeruginosa LPS (Sigma) or 200 µg/ml E. coli lipid A (Sigma), at 37°C for 3 hour. After incubation overnight at 4°C, the reduction of LPS (or Lipid A) in the supernatants were measured by the Limulus Amebocyte Lysate (LAL) test (Charles River Endosafe) with an ELISA reader (Molecular Devices). The amount (EU/ml) of LPS was calculated according to the standard curve prepared with Endosafe Control Srandard Endotoxin. […] After trypsinization, the trypsin-released LPS in the supernatants were collected and measured by the Limulus Amebocyte Lysate (LAL) test. […] Plate-bound HBc147-183 was measured by streptavidin conjugated with HRP (1∶10000 dilution) for 1 hour at 37°C. […] The absorption was measured at 450 nm with a reference wavelength at 655 nm.

[6] = test system: K. pneumonia; assay: SYTOX Green uptake (membrane permeabilization); type: cell-based, Klebsiella pneumoniae; conditions: 4 µM peptide; 10^7 CFU, 1 µM SYTOX Green, 37°C
Protocol: as §1

[7] = test system: K. pneumonia; assay: Killing kinetics; type: cell-based, Klebsiella pneumoniae; conditions: 4 µM peptide, 37°C, triplicates
Protocol: For measurement of killing kinetics, bacteria and peptides were prepared as described above. Fifty µl of bacteria were mixed with fifty µl of peptides at the concentrations corresponding to MBC and were incubated at 37°C. At the indicated time, bacteria were serially diluted and placed on Mueller-Hinton broth agar plates for the viability measurement.

## CC(C)[C@H](NC(=O)[C@@H](NC(=O)[C@@H](N)[C@@H](C)O)C(C)C)C(=O)N[C@@H](CCCNC(=N)N)C(=O)N[C@@H](CCCNC(=N)N)C(=O)N[C@@H](CCCNC(=N)N)C(=O)NCC(=O)N[C@@H](CCCNC(=N)N)C(=O)N[C@@H](CO)C(=O)N1CCC[C@H]1C(=O)N[C@@H](CCCNC(=N)N)C(=O)N[C@@H](CCCNC(=N)N)C(=O)N[C@@H](CCCNC(=N)N)C(=O)N[C@H](C(=O)N1CCC[C@H]1C(=O)N[C@@H](CO)C(=O)N1CCC[C@H]1C(=O)N[C@@H](CCCNC(=N)N)C(=O)N[C@@H](CCCNC(=N)N)C(=O)N[C@@H](CCCNC(=N)N)C(=O)N[C@@H](CCCNC(=N)N)C(=O)N[C@@H](CO)C(=O)N[C@@H](CCC(N)=O)C(=O)N[C@@H](CO)C(=O)N1CCC[C@H]1C(=O)N[C@@H](CCCNC(=N)N)C(=O)N[C@@H](CCCNC(=N)N)C(=O)N[C@@H](CCCNC(=N)N)C(=O)N[C@@H](CCCNC(=N)N)C(=O)N[C@@H](CO)C(=O)N[C@@H](CCC(N)=O)C(=O)N[C@@H](CO)C(=O)N[C@@H](CCCNC(=N)N)C(=O)N[C@@H](CCC(=O)O)C(=O)N[C@@H](CO)C(=O)N[C@@H](CCC(N)=O)C(=O)N[C@@H](CS)C(=O)O)[C@@H](C)O [HBc147-183] (H-TVVRRRGRSPRRRTPSPRRRRSQSPRRRRSQSRESQC-OH; N-terminus and C-terminus assumed)
[1]
  Effect on cell proliferation (CFSE intensity, day 3 vs mock): no significant effect
[2]
  Membrane permeabilization (SYTOX Green uptake): significant degree of membrane permeabilization
[3]
  Hemolysis: no detectable hemolysis
[4]
  Antimicrobial activity, MBC: 18.36 µg/mL
[5]
  Binding of peptide to plate-coated LPS with increasing Lipid A: significantly decreased
[6]
  Membrane permeabilization (SYTOX Green uptake): not able to induce membrane permeabilization
[7]
  Time to complete killing: 180 min
